According to EP1561465A2, “Methods of use of fluoroquinolone compounds against bacteria” (LG Life Sciences, Ltd., priority 1999, dated 2001):
≈ marks a conversion by molar mass, not a printed value. Read-outs that look alike come from different tables or passages of the source.

How the values were obtained:
Assay type in all cases: cell-based
E. coli = assay: MIC and MBC by microdilution in Mueller-Hinton broth, uropathogens
Protocol: MICs and MBCs were determined by a microdilution method with Mueller-Hinton broth. An inoculum of 1.3-9.4 x 10^5 colony forming units (CFU) per ml was used.
Strains included a reference strain E. coli ATCC 25922, susceptible to nalidixic acid (Nal-S) and the following clinical isolates obtained from complicated UTI patients: E. coli (resistant to nalidixic acid), K. pneumoniae, P. mirabilis , P. aeruginosa, […] (3 strains) and Enterococcus faecalis (2 strains).

S. aureus = assay: Urinary bactericidal titers (UBT) and AUBTC of volunteers' urine; settings: urine after gemifloxacin 320 mg or ofloxacin 400 mg
P. aeruginosa = assay: as above; settings: P. aeruginosa (16) Laboratory No. 568; urine after gemifloxacin 320 mg or ofloxacin 400 mg
[1] = system: anaerobic cocci and Gram positive pathogens; assay: organism not typed; settings: read-out: MIC90s
[2] = system: enteropathogenic bacterial strains; assay: MIC by agar dilution (NCCLS M7-A4), enteropathogenic isolates pooled; settings: all enteropathogenic isolates except C. jejuni
[3] = E. coli ATCC 25922, inoculum 1.3 CFU 10^5/ml
[4] = E. coli Laboratory No. 523, inoculum 3.4 CFU 10^5/ml
[5] = Escherichia coli, ATCC25922, E. coli ATCC 25922 (reference strain), read-out: MIC
[6] = Escherichia coli, ATCC25922, E. coli ATCC 25922, inoculum 1.3 CFU 10^5/ml
[7] = Escherichia coli, E. coli Laboratory No. 523, inoculum 3.4 CFU 10^5/ml
[8] = Escherichia coli, E. coli clinical isolate (0.06/0.5), read-out: MIC
[9] = S. aureus (13) Laboratory No. 636
[10] = S. aureus (16) Laboratory No. 83
[11] = S. aureus (16) Laboratory No. 161

CC1COc2c(N3CCN(C)CC3)c(F)cc3c(=O)c(C(=O)O)cn1c23 (stereo not shown) [Ofloxacin, ofloxacin]
MIC (E. coli; [3]): 0.06 µg/mL (≈ 0.166 µM)
MIC (E. coli; [4]): 0.5 µg/mL (≈ 1.38 µM)
MIC (E. coli; [5]): 0.06 µg/mL (≈ 0.166 µM)
MBC (E. coli; [6]): 0.06 µg/mL (≈ 0.166 µM)
MBC (E. coli; [7]): 0.5 µg/mL (≈ 1.38 µM)
MIC (E. coli; [8]): 0.5 µg/mL (≈ 1.38 µM)
AUBTC (range) (S. aureus; [9]): 105 (0-279)
AUBTC (range) (S. aureus; [10]): 387 (162-570)
AUBTC (range) (S. aureus; [11]): 39 (0-78)
AUBTC (range) (P. aeruginosa): 99 (42-258)

CO/N=C1\CN(c2nc3c(cc2F)c(=O)c(C(=O)O)cn3C2CC2)CC1CN (racemic) [Gemifloxacin, (R,S)-7-(3-aminomethyl-4-methoxyiminopyrrolidin-1-yl)-1-cyclopropyl-6-fluoro-4-oxo-1,4-dihydro-1,8-naphthyridine-3-carboxylic acid]
MIC (E. coli; [3]): 0.016 µg/mL (≈ 0.0411 µM)
MIC (E. coli; [4]): 0.06 µg/mL (≈ 0.154 µM)
MIC (E. coli; [5]): 0.016 µg/mL (≈ 0.0411 µM)
MBC (E. coli; [6]): 0.016 µg/mL (≈ 0.0411 µM)
MBC (E. coli; [7]): 0.06 µg/mL (≈ 0.154 µM)
MIC (E. coli; [8]): 0.06 µg/mL (≈ 0.154 µM)
AUBTC (range) (S. aureus; [9]): 108 (0-408)
AUBTC (range) (S. aureus; [10]): 540 (246-834)
AUBTC (range) (S. aureus; [11]): 60 (0-144)
MIC [1]: 0.125 to 2 µg/mL (≈ 0.321 to 5.14 µM)
AUBTC (range) (P. aeruginosa): 48 (12-300)
concentration inhibiting 100% of isolates [2]: 0.25 mg/L
